For this experiment, the target named is GluA1o-γ8 (GRIA1o-CACNG8 fusion construct) (Homo sapiens (Human), UniProt P42261+Q8WXS5). The experiment is described as follows: Calcium flux assay (FLIPR), inhibition of TARP γ8 dependent AMPA receptor activity. Format: cell-based. Particulars: GluA1o-γ8 (GRIA1o-CACNG8 fusion) in HEK293 cells, calcium flux after 15 μM glutamate. The method in brief: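 Glutamate (15 μM) was added to a stable HEK293 line carrying the GluA1o–γ8 fusion, which had been preincubated with compound and calcium dye in HEPES buffer, pH 7.4. Normalized FLIPR fluorescence (no compound vs 10 μM CP465022) was fitted with four parameters; pIC50 is the midpoint's negative log.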
In general terms: Calcium assays in cells follow changes in intracellular calcium, usually with a dye or a luminescent sensor.

pIC50: −log10 of the molar value.

Sequence of GluA1o-γ8 (GRIA1o-CACNG8 fusion construct) (P42261 other isoform, or with tags, fused parts or gaps): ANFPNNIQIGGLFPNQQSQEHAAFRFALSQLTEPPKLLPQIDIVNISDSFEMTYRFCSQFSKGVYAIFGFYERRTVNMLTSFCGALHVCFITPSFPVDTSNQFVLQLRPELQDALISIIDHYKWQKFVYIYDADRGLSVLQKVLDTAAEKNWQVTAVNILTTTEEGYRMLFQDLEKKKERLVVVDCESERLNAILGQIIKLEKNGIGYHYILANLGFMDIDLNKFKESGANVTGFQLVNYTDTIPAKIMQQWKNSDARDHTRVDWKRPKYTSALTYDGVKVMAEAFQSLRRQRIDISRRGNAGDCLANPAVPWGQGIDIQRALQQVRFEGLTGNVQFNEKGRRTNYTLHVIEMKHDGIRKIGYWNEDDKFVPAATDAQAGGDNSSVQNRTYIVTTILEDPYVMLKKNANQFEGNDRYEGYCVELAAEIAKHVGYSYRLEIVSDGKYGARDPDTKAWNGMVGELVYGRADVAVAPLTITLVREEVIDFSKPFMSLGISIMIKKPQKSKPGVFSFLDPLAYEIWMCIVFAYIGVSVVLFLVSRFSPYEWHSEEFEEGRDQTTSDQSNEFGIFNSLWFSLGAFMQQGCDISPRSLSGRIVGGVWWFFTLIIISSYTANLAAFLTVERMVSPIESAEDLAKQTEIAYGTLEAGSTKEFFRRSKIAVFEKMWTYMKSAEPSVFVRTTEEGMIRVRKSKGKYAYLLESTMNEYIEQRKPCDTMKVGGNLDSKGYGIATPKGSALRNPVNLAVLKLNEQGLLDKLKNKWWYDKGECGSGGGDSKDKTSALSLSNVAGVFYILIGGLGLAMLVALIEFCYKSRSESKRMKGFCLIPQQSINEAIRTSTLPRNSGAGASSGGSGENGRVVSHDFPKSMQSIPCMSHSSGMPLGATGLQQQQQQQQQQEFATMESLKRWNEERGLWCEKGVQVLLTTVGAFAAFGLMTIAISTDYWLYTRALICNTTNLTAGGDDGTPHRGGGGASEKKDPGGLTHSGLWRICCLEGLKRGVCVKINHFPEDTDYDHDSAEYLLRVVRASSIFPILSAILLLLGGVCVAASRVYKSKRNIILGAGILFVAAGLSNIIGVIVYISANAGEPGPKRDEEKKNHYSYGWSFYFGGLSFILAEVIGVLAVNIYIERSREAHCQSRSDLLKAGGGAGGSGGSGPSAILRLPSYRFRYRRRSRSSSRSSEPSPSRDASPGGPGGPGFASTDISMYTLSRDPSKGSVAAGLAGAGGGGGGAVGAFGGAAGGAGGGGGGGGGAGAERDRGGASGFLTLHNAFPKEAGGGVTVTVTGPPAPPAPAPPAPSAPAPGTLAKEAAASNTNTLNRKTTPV

One may read the pIC50 as the negative decadic logarithm of the IC50, by convention in mol/L. `COCCc1nc2ccc(C(F)(F)F)nc2n1-c1ccc2c(c1)CC(=O)N2` [Example 77, 5-[2-(2-Methoxyethyl)-5-(trifluoromethyl)imidazo[4,5-b]pyridin-3-yl]indolin-2-one]: the pIC50 was 6.60.

With `c1cc2[nH]ncc2cc1-n1c(C2CCC2)nc2ccc(C3CC3)nc21` [Example 78, 2-Cyclobutyl-5-cyclopropyl-3-(1H-indazol-5-yl)imidazo[4,5-b]pyridine], the pIC50 was 9.80.

Turning to `CC(C)c1nc2ccc(C3CC3)nc2n1-c1ccc2[nH]ncc2c1` [Example 79, 5-Cyclopropyl-3-(1H-indazol-5-yl)-2-isopropyl-imidazo[4,5-b]pyridine], the pIC50 was 8.70.

For `O=c1[nH]c2ccc(-n3c(C4CCC4)nc4ccc(C(F)(F)F)nc43)cc2o1` [Example 80, 6-[2-Cyclobutyl-5-(trifluoromethyl)imidazo[4,5-b]pyridin-3-yl]-3H-1,3-benzoxazol-2-one], the pIC50 is 8.70.

As for `O=C(c1nc2ccc(C(F)(F)F)nc2n1-c1ccc2[nH]ncc2c1)N1CCC1` [Example 81, Azetidin-1-yl-[3-(1H-indazol-5-yl)-5-(trifluoromethyl)imidazo[4,5-b]pyridin-2-yl]methanone], the pIC50 is 6.30.

Turning to `Nc1ccc2nc(-c3ccc(F)cc3)n(-c3ccc4[nH]c(=O)sc4c3)c2n1` [Example 82, 6-[5-Amino-2-(4-fluorophenyl)imidazo[4,5-b]pyridin-3-yl]-3H-1,3-benzothiazol-2-one], the pIC50 was 7.20.

Consider `CCC(CC)c1nc2ccc(C(F)(F)F)nc2n1-c1ccc2c(c1)CC(=O)N2` [Example 83, 5-[2-(1-Ethylpropyl)-5-(trifluoromethyl)imidazo[4,5-b]pyridin-3-yl]indolin-2-one], for which the pIC50 was 7.20.

With `Cc1ccc2nc(C(C)C)n(-c3ccc4c(c3)CC(=O)N4)c2n1` [Example 84, 5-(2-Isopropyl-5-methyl-imidazo[4,5-b]pyridin-3-yl)indolin-2-one], the pIC50 is 7.20.

As for `O=C(Nc1ccccc1)c1nc2ccc(C(F)(F)F)nc2n1-c1ccc2[nH]ncc2c1` [Example 85, 3-(1H-Indazol-5-yl)-N-phenyl-5-(trifluoromethyl)imidazo[4,5-b]pyridine-2-carboxamide], the pIC50 is 7.10.

Consider `Fc1ccc(-c2nc3ccc(C4CC4)nc3n2-c2ccc3[nH]ncc3c2)cc1` [Example 86, 5-Cyclopropyl-2-(4-fluorophenyl)-3-(1H-indazol-5-yl)imidazo[4,5-b]pyridine], for which the pIC50 was 9.10.

On to `Cc1ccc2nc(C3CC3)n(-c3ccc4c(c3)CC(=O)N4)c2n1` [Example 87, 5-(2-Cyclopropyl-5-methyl-imidazo[4,5-b]pyridin-3-yl)indolin-2-one], for which the pIC50 was 7.10.

Turning to `O=C1Cc2cc(-n3c(C(F)(F)F)nc4ccc(C(F)(F)F)nc43)ccc2N1` [Example 88, 5-[2,5-Bis(trifluoromethyl)imidazo[4,5-b]pyridin-3-yl]indolin-2-one], the pIC50 was 8.80.

In the case of `FC(F)(F)c1ccc2nc(C(F)(F)F)n(-c3ccc4[nH]ncc4c3)c2n1` [Example 89, 3-(1H-Indazol-5-yl)-2,5-bis(trifluoromethyl)imidazo[4,5-b]pyridine], the pIC50 was 8.90.

For the molecule `FC(F)c1nc2ccc(C(F)(F)F)nc2n1-c1ccc2[nH]ncc2c1` [Example 90, 2-(Difluoromethyl)-3-(1H-indazol-5-yl)-5-(trifluoromethyl)imidazo[4,5-b]pyridine], the pIC50 was 8.50.

On to `FC(F)(F)c1ccc2nc(-c3cccs3)n(-c3ccc4[nH]ncc4c3)c2n1` [Example 91, 3-(1H-Indazol-5-yl)-2-(2-thienyl)-5-(trifluoromethyl)imidazo[4,5-b]pyridine], for which the pIC50 was 8.40.

On to `FC(F)(F)c1ccc2nc(-c3ccco3)n(-c3ccc4[nH]ncc4c3)c2n1` [Example 92, 2-(2-Furyl)-3-(1H-indazol-5-yl)-5-(trifluoromethyl)imidazo[4,5-b]pyridine], for which the pIC50 is 8.30.

As to `CC(F)(F)c1nc2ccc(C(F)(F)F)nc2n1-c1ccc2c(c1)CC(=O)N2` [Example 93, 5-[2-(1,1-Difluoroethyl)-5-(trifluoromethyl)imidazo[4,5-b]pyridin-3-yl]indolin-2-one], the pIC50 was 8.10.

Consider `O=C1Cc2cc(-n3c(C(F)F)nc4ccc(C(F)(F)F)nc43)ccc2N1` [Example 94, 5-[2-(Difluoromethyl)-5-(trifluoromethyl)imidazo[4,5-b]pyridin-3-yl]indolin-2-one], for which the pIC50 was 7.30.

In the case of `O=C1Cc2cc(-n3c(C4CC4)nc4ccc(Cl)nc43)ccc2N1` [Example 95, 5-(5-Chloro-2-cyclopropyl-imidazo[4,5-b]pyridin-3-yl)indolin-2-one], the pIC50 is 7.40.

With `CC(C)(C)Cc1nc2ccc(C(F)(F)F)nc2n1-c1ccc2c(c1)CC(=O)N2` [Example 97, 5-[2-(2,2-Dimethylpropyl)-5-(trifluoromethyl)imidazo[4,5-b]pyridin-3-yl]indolin-2-one], the pIC50 is 6.60.

In the case of `Cc1nc2ccc(C(F)(F)F)nc2n1-c1ccc2[nH]ncc2c1` [Example 98, 3-(1H-Indazol-5-yl)-2-methyl-5-(trifluoromethyl)imidazo[4,5-b]pyridine], the pIC50 was 7.20.

Consider `CCc1nc2ccc(C(F)(F)F)nc2n1-c1ccc2c(c1)CC(=O)N2` [Example 99, 5-[2-Ethyl-5-(trifluoromethyl)imidazo[4,5-b]pyridin-3-yl]indolin-2-one], for which the pIC50 is 7.90.

Regarding `CC(C)Cc1nc2ccc(C(F)(F)F)nc2n1-c1ccc2[nH]ncc2c1` [Example 101, 3-(1H-Indazol-5-yl)-2-isobutyl-5-(trifluoromethyl)imidazo[4,5-b]pyridine], the pIC50 was 7.60.

Regarding `FC(F)(F)c1ccc2nc(C3CCC3)n(-c3ccc4[nH]ncc4c3)c2n1` [Example 103, 2-Cyclobutyl-3-(1H-indazol-5-yl)-5-(trifluoromethyl)imidazo[4,5-b]pyridine], the pIC50 is 8.80.

For `FC(F)(F)c1ccc2nc(C3CCCC3)n(-c3ccc4[nH]ncc4c3)c2n1` [Example 104, 2-Cyclopentyl-3-(1H-indazol-5-yl)-5-(trifluoromethyl)imidazo[4,5-b]pyridine], the pIC50 was 8.30.

With `CCc1nc2ccc(C(F)(F)F)nc2n1-c1ccc2[nH]ncc2c1` [Example 105, 2-Ethyl-3-(1H-indazol-5-yl)-5-(trifluoromethyl)imidazo[4,5-b]pyridine], the pIC50 was 8.10.

As for `O=c1[nH]c2ccc(-n3c(C4CC4)nc4ccc(C(F)(F)F)nc43)cc2[nH]1` [Example 106, 5-[2-Cyclopropyl-5-(trifluoromethyl)imidazo[4,5-b]pyridin-3-yl]-1,3-dihydrobenzimidazol-2-one], the pIC50 was 8.60.

In the case of `O=c1[nH]c2ccc(-n3c(C4CC4)nc4ccc(C(F)(F)F)nc43)cc2o1` [Example 107, 6-[2-Cyclopropyl-5-(trifluoromethyl)imidazo[4,5-b]pyridin-3-yl]-3H-1,3-benzoxazol-2-one], the pIC50 was 7.80.

As to `CC(C)(C)c1nc2ccc(C(F)(F)F)nc2n1-c1ccc2[nH]ncc2c1` [Example 108, 2-tert-Butyl-3-(1H-indazol-5-yl)-5-(trifluoromethyl)imidazo[4,5-b]pyridine], the pIC50 is 7.70.

Consider `CC(C)c1nc2ccc(C(F)(F)F)nc2n1-c1ccc2[nH]ncc2c1` [Example 109, 3-(1H-Indazol-5-yl)-2-isopropyl-5-(trifluoromethyl)imidazo[4,5-b]pyridine], for which the pIC50 is 9.60.

Regarding `Fc1ccc(-c2nc3ccc(C(F)(F)F)nc3n2-c2ccc3[nH]ncc3c2)cc1` [Example 110, 2-(4-Fluorophenyl)-3-(1H-indazol-5-yl)-5-(trifluoromethyl)imidazo[4,5-b]pyridine], the pIC50 was 9.50.

For the molecule `O=c1[nH]c2ccc(-n3c(-c4ccccc4)nc4ccc(O)nc43)cc2s1` [Example 111, 6-(5-Hydroxy-2-phenyl-imidazo[4,5-b]pyridin-3-yl)-3H-1,3-benzothiazol-2-one], the pIC50 was 7.80.

As for `Fc1ccc(-c2nc3cccnc3n2-c2cnc3[nH]ncc3c2)cc1` [Example 112, 2-(4-Fluorophenyl)-3-(1H-pyrazolo[3,4-b]pyridin-5-yl)imidazo[4,5-b]pyridine], the pIC50 is 6.40.

As to `FC(F)(F)Cc1nc2ccc(C(F)(F)F)nc2n1-c1ccc2[nH]ncc2c1` [Example 113, 3-(1H-Indazol-5-yl)-2-(2,2,2-trifluoroethyl)-5-(trifluoromethyl)imidazo[4,5-b]pyridine], the pIC50 is 6.60.

As for `CCOc1nc2ccc(C(F)(F)F)nc2n1-c1ccc2[nH]ncc2c1` [Example 114, 2-Ethoxy-3-(1H-indazol-5-yl)-5-(trifluoromethyl)imidazo[4,5-b]pyridine], the pIC50 was 7.90.

For the molecule `OC1(c2nc3ccc(C(F)(F)F)nc3n2-c2ccc3[nH]ncc3c2)CC1` [Example 115, 1-[3-(1H-Indazol-5-yl)-5-(trifluoromethyl)imidazo[4,5-b]pyridin-2-yl]cyclopropanol], the pIC50 is 6.70.

Take `CC(F)(F)c1nc2ccc(C(F)(F)F)nc2n1-c1ccc2[nH]ncc2c1` [Example 116, 2-(1,1-Difluoroethyl)-3-(1H-indazol-5-yl)-5-(trifluoromethyl)imidazo[4,5-b]pyridine]: the pIC50 is 8.70.

Regarding `CC(C)(C)c1ccc2nc(-c3ccc(F)cc3)n(-c3ccc4[nH]ncc4c3)c2n1` [Example 118, 5-tert-Butyl-2-(4-fluorophenyl)-3-(1H-indazol-5-yl)imidazo[4,5-b]pyridine], the pIC50 was 9.80.

Take `CC(C)c1ccc2nc(C3CCC3)n(-c3ccc4[nH]ncc4c3)c2n1` [Example 119, 2-Cyclobutyl-3-(1H-indazol-5-yl)-5-isopropyl-imidazo[4,5-b]pyridine]: the pIC50 is 10.50.

Take `CC(C)c1ccc2nc(-c3ccc(F)cc3)n(-c3ccc4[nH]ncc4c3)c2n1` [Example 120, 2-(4-Fluorophenyl)-3-(1H-indazol-5-yl)-5-isopropyl-imidazo[4,5-b]pyridine]: the pIC50 was 10.30.

The values above are taken from patent US11312712B2, “Azabenzimidazoles and their use as AMPA receptor modulators” (Janssen Pharmaceutica NV, priority 2015, dated 2022).
